Patent EP0381989A1, “New 4'-epi-4'-amino anthracyclines” (FARMITALIA CARLO ERBA S.r.l., priority 1989, dated 1990)
Values after ≈ are worked out from the molar mass of the structure shown.

Assays:
[1] = system: LoVo (human colon adenocarcinoma); assay: in vitro cytotoxicity (colony growth inhibition) on LoVo cells; conditions: for Cytotoxicity after 4h of treatment (IC50) LoVo: lovo cells; for IC50: Homo sapiens, LoVo, 4 h, read-out: Cytotoxicity after 4h of treatment (IC50) LoVo
Description: (§1) The biological activity of the compounds according to the inventio was tested in vitro against LoVo (human colon adenocarcinoma) and LoVo/DX cells in comparison with doxorubicin and 4-demethoxydaunorubicin (4-dem-DNR). Table 1. Table 1 -

LoVo/DX cells = assay: in vitro cytotoxicity (colony growth inhibition) on LoVo/DX cells; conditions: for Cytotoxicity after 4h of treatment (IC50) LoVo/DX: lovo/dx cells; for R.I. = Resistance Index = (IC50 LoVo.DX)/(IC50 LoVo): ratio of IC50 on LoVo/DX to IC50 on LoVo, 4h of treatment; for IC50: Homo sapiens, LoVo/DX, read-out: Cytotoxicity after 4h of treatment (IC50) LoVo/DX; for Cytotoxicity after 4h of treatment (IC50) LoVo/DX / IC50: 4 h
Description: as §1

Row | Compound | Cytotoxicity after 4h of treatment (IC50) LoVo [1] | Cytotoxicity after 4h of treatment (IC50) LoVo/DX (LoVo/DX cells) | R.I. = Resistance Index = (IC50 LoVo.DX)/(IC50 LoVo) (LoVo/DX cells) | IC50 [1] | IC50 (LoVo/DX cells)
1 | 4-demethyl-6-deoxy-3′-deamino-4′-deoxy-4′-epi-amino-doxorubicin [2d] | 1.2 ng/mL | 3.8 ng/mL | 3.2 | – | –
2 | CC(=O)[C@]1(O)Cc2c(O)c3c(c(O)c2[C@@H](O[C@H]2CC[C@@H](N)[C@H](C)O2)C1)C(=O)c1c(O)cccc1C3=O [1a, 4-demethyl-3′-deamino-4′-deoxy-4′-epi-amino-daunorubicin] | – | – | 2.4 | 0.0011 µg/mL (≈ 0.00221 µM) | 0.0027 µg/mL (≈ 0.00543 µM)
3 | COc1cccc2c1C(=O)c1c(O)c3c(c(O)c1C2=O)C[C@@](O)(C(=O)CO)C[C@@H]3O[C@H]1C[C@H](N)[C@H](O)[C@H](C)O1 [Doxorubicin, doxorubicin, reference compound] | – | – | 36 | 0.06 µg/mL (≈ 0.11 µM) | 2.18 µg/mL (≈ 4.01 µM)
4 | C[C@@H]1O[C@@H](O[C@H]2C[C@](O)(C(=O)CO)Cc3c(N)c4c(c(O)c32)C(=O)c2ccccc2C4=O)CC[C@H]1N [2g, 4-demethoxy-11-deoxy-11-amino-3′-deamino-4′-deoxy-4′-epi-amino-doxorubicin] | – | – | 5.8 | 0.0188 µg/mL (≈ 0.0379 µM) | 0.109 µg/mL (≈ 0.22 µM)
5 | C[C@@H]1O[C@@H](O[C@H]2C[C@](O)(C(=O)CO)Cc3c2c(O)c2c(c3[N+](=O)[O-])C(=O)c3ccccc3C2=O)CC[C@H]1N [2e, 4-demethoxy-11-deoxy-11-nitro-3′-deamino-4′-deoxy-4′-epi-amino-doxorubicin] | – | – | 4.2 | 0.0484 µg/mL (≈ 0.0919 µM) | 0.205 µg/mL (≈ 0.389 µM)
6 | CC(=O)[C@]1(O)Cc2c(O)c3c(c(O)c2[C@@H](O[C@H]2C[C@H](N)[C@H](O)[C@H](C)O2)C1)C(=O)c1ccccc1C3=O [4-dem-DNR, 4-demethoxydaunorubicin, reference compound] | – | – | 6 | 0.02 µg/mL (≈ 0.0402 µM) | 0.125 µg/mL (≈ 0.251 µM)
7 | CC(=O)[C@]1(O)Cc2c(O)c3c(c(O)c2[C@@H](O[C@H]2CC[C@@H](N)[C@H](C)O2)C1)C(=O)c1c(F)cccc1C3=O [1c, 4-demethoxy-4-fluoro-3′-deamino-4′-deoxy-4′-epi-amino-daunorubicin] | – | – | 5.0 | 0.0012 µg/mL (≈ 0.0024 µM) | 0.006 µg/mL (≈ 0.012 µM)
8 | C[C@@H]1O[C@@H](O[C@H]2C[C@](O)(C(=O)CO)Cc3c(O)c4c(c(N)c32)C(=O)c2ccccc2C4=O)CC[C@H]1N [2h, 4-demethoxy-6-deoxy-6-amino-3′-deamino-4′-deoxy-4′-epi-amino-doxorubicin] | – | – | 14.5 | 0.0062 µg/mL (≈ 0.0125 µM) | 0.09 µg/mL (≈ 0.181 µM)
9 | 4-demethoxy-6-deoxy-6-amino-3′-deamino-4′-deoxy-4′-epi-amino-daunorubicin [1h] | 4.0 ng/mL | 8.6 ng/mL | 2.2 | – | –
10 | C[C@@H]1O[C@@H](O[C@H]2C[C@](O)(C(=O)CO)Cc3c(O)c4c(c([N+](=O)[O-])c32)C(=O)c2ccccc2C4=O)CC[C@H]1N [2f, 4-demethoxy-6-deoxy-6-nitro-3′-deamino-4′-deoxy-4′-epi-amino-doxorubicin] | – | – | 19.4 | 0.116 µg/mL (≈ 0.22 µM) | 2.26 µg/mL (≈ 4.28 µM)
